Laboratory results from PubChem BioAssay (NCI).
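Protocol summary: plate cells (96-well), add compound at 5 concentrations, incubate 48 h, interpolate endpoints linearly. At the GI50, growth is halved. TGI marks complete inhibition of growth.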

How the values were obtained:
Assay in all cases: DTP human tumour cell line panel, 48 h
A498 renal = system: A498 renal
HCT-116 colon = system: HCT-116 colon
KM12 colon = system: KM12 colon
MALME-3M melanoma = system: MALME-3M melanoma
SF-268 CNS = system: SF-268 CNS
SF-295 CNS = system: SF-295 CNS
TK-10 renal = system: TK-10 renal
UACC-62 melanoma = system: UACC-62 melanoma
UO-31 renal = system: UO-31 renal
LOX IMVI melanoma = system: LOX IMVI melanoma

Row | SMILES | TGI (A498 renal) [µM] | TGI (HCT-116 colon) [µM] | TGI (KM12 colon) [µM] | TGI (MALME-3M melanoma) [µM] | TGI (SF-268 CNS) [µM] | TGI (SF-295 CNS) [µM] | TGI (TK-10 renal) [µM] | TGI (UACC-62 melanoma) [µM] | TGI (UO-31 renal) [µM] | TGI (LOX IMVI melanoma) [µM] | GI50 (HCT-116 colon) [µM]
1 | CCCCCCCCCCCCOCC(COP(=O)(O)OCCN=[N+]=[N-])OC(=O)CCCCCCCCCCC (stereo unspecified) | > 100 | > 100 | > 100 | > 100 | > 100 | > 100 | > 100 | > 100 | > 100 | – | –
2 | CCCCCCCCCCCC1=C(O)C(=O)C(CC2=C(O)C(=O)C(CCCCCCCCCCC)=C(O)C2=O)=C(O)C1=O | 98.2 | > 100 | > 100 | > 100 | > 100 | > 100 | > 100 | > 100 | > 100 | > 100 | –
3 | O=c1[nH]ncc2[nH]c3c(c12)CCc1ccccc1-3 | 61.8 | > 100 | > 100 | > 100 | > 100 | > 100 | 81.2 | – | > 100 | > 100 | –
4 | NC1CCC2(O)c3ccccc3C2C1 (stereo unspecified) | – | > 100 | > 100 | > 100 | > 100 | > 100 | > 100 | > 100 | > 100 | > 100 | –
5 | O=C1Nc2noc(=O)nc2NO1 | > 200 | > 200 | > 200 | > 200 | > 200 | > 200 | > 200 | > 200 | > 200 | > 200 | –
6 | Cc1cc(NC(=O)NC(=O)c2ccccc2NC(=O)CN(C)C)ccc1Oc1ncc(Br)cn1 | 17 | > 79.4 | > 100 | > 100 | > 100 | 16.2 | > 100 | > 82.9 | > 100 | > 100 | –
7 | CC[C@]1(c2ccc3c(c2)OCO3)C=[N+]([O-])O[C@H](OC2CCCC2(c2ccccc2)c2ccccc2)[C@@H]1OC(C)=O (stereo partly specified) | 2.94 | 3.67 | 3.62 | – | 6.64 | 3.2 | 11.6 | 4.64 | 5.21 | > 22.4 | –
8 | C/C(=N\NC(=S)NC(C)(C)C)c1nc2ncccc2[nH]1 | > 100 | > 100 | > 100 | 60.4 | > 31.6 | > 100 | > 100 | 46.7 | 5.82 | > 100 | –
9 | COc1ccc(C2C(=O)c3ccc(OC)cc3OC2c2cccnc2)cc1 (stereo unspecified) | > 100 | > 100 | > 100 | > 100 | > 100 | > 100 | > 100 | > 100 | > 100 | > 100 | –
10 | O=C1/C(=C\c2cccc(Oc3ccccc3)c2)SC(c2ccccc2)N1c1cc(Cl)ccc1Cl (stereo unspecified) | > 100 | 52.7 | > 100 | 89.7 | 58.6 | > 100 | > 100 | > 100 | > 100 | 38.2 | –
11 | CCOC(=O)CNC(=O)c1[nH]cnc1/N=N/N(C)C | > 100 | > 100 | > 100 | > 100 | > 100 | > 100 | > 100 | > 100 | > 100 | > 100 | –
12 | BrC1(c2ccccc2)C[n+]2c(-c3ccccc3)cc(-c3ccccc3)cc2-c2ccccc21 (stereo unspecified) | 9.32 | 8.32 | 1.34 | 13.2 | 2.96 | 5.68 | 20.6 | – | 3.31 | 1.82 | –
13 | Clc1[nH]nc2ccccc12 | > 100 | > 100 | > 100 | > 100 | > 100 | > 100 | > 100 | > 100 | > 100 | – | –
14 | COc1cccc(/C=N/[N-]C(N)=O)c1[O-].[Cu+2].[OH3+] | 32.2 | 15.9 | 28 | 28.8 | 32.9 | 28.9 | – | – | 31.7 | 30.6 | 4.09
15 | O=[N+]([O-])/C=C/c1cc(Cl)c(/C=C/[N+](=O)[O-])cc1Cl | 14.2 | 7.1 | > 24.6 | – | 16.5 | 25 | 2.9 | 4.34 | – | 2.99 | –
16 | COc1ccc(S(=O)(=O)NC(CCC(=O)NC(N)=O)C(=O)NC(N)=O)cc1 (stereo unspecified) | > 100 | > 100 | > 100 | > 100 | – | > 100 | > 100 | > 100 | > 100 | > 100 | –
17 | Cc1nc(C(=Nc2ccc(Br)cc2)Nn2cnnc2)no1 | > 100 | > 100 | > 100 | > 100 | – | > 100 | – | > 100 | > 100 | – | –
18 | Nc1c(C(=O)O)c2ccc([N+](=O)[O-])cc2c(=O)n1-c1nc2ccccc2s1 | > 100 | > 100 | > 100 | > 100 | > 100 | > 100 | – | > 100 | > 100 | > 100 | –
19 | CC1=NC(=N)N=C(C)C1N=Nc1ccc2nc(C)[nH]c2c1 (stereo unspecified) | > 100 | > 100 | > 100 | > 100 | > 100 | > 100 | > 100 | > 100 | – | > 100 | –
20 | Cc1cc2nc(N3C(=O)/C(=C/Cc4ccco4)N=C3c3ccccc3)sc2cc1C | – | 54 | > 100 | – | > 100 | > 100 | > 100 | > 100 | > 100 | > 100 | –
21 | COc1cc2c(cc1OC)C1=C(C=O)c3ccc(OC)c(OC)c3C(O)N1CC2 (stereo unspecified) | 72.5 | > 100 | > 100 | 53.9 | > 100 | > 100 | 72.8 | 29.4 | > 100 | – | –
22 | CC1CC(c2ccccc2)=Nc2ccccc2S1 (stereo unspecified) | > 100 | > 100 | > 100 | – | > 100 | > 100 | > 100 | > 100 | > 100 | > 100 | –
